Data from US20130302409A1, “METHODS AND COMPOSITIONS FOR CANCER IMMUNOTHERAPY” (priority 2010, published 2013).

System: 4T1 tumor (highly metastatic, syngeneic mammary cancer cell line)
Assay: Survival of tumor-bearing mice after cyclophosphamide, intratumoral nanoparticles and cryoablation or resection
Format: in vivo, BALB/c mice
Settings: Cy 200 mg/kg intraperitoneally day 14 plus cryoablation day 16, compared with Cy plus surgical resection of the subcutaneous nodule; FIG. 3A
Experimental: The particles are suspended with a pipette for about one minute. […] The particles in PBS should not be used if kept for more than 12 hours. The particles are lightly sonicated with a bath sonicator, or vortexed to make an even suspension. The particles should not sit idly in the syringe as they will settle and then clog the syringe. Ideally, the injection should be made within 10-30 seconds after drawing the well-mixed nanoparticle suspension into the syringe. For mice with a tumor of 5-8 mm diameter, 100 mg of particles is injected directly into the tumor in a volume of 0.1 ml.
Groups of 10 BALB/c mice each received a subcutaneous inoculation of 10^4 cells of the highly metastatic, syngeneic mammary cancer cell line on the flank.

O=P1(N(CCCl)CCCl)NCCCO1 (stereo not shown) [cyclophosphamide]
survival: did not survive significantly longer
